The values below come from a melting point compilation (Tetko et al.; mined from patent text by program, amines drawn as free bases though some values may be those of a salt).

The melting point is the temperature, or range, at which the solid turns liquid.

Bounds are passed on as bounds.

`CC(C)(C)c1cc(CCc2ccccc2NC(=O)NC2CCN(Cc3ccc(C(F)(F)F)cc3C(F)(F)F)CC2)cc(C(C)(C)C)c1O` had a melting point of 156 to 157 °C.
Then `CC(C)(c1cc(F)ccc1F)S(=O)(=O)c1ccc(Cl)cc1`, with 147 to 148 °C; and `CC(C)(C)CNc1cc(NCC(C)(C)C)nc(N2CCNCC2)n1`, with 132 to 136 °C; and `CC(C)(CNC(=O)[C@H](O)[C@H](O)COC(=O)Cc1ccccc1Nc1c(Cl)cccc1Cl)SN=O`, with 57 to 59 °C.
For `CC(C(=O)O)n1cc(-c2ccc(Oc3ccccc3)cc2)c2c(N)ncnc21` (stereo not drawn), the melting point was 240 to 241 °C.
`CCOC(=O)CN(Cc1cc(F)ccc1F)S(=O)(=O)c1ccc(N2CCC(NC[C@H](O)c3ccc(O)c(NS(C)(=O)=O)c3)CC2)cc1` displayed a melting point of 85 to 90 °C.
Turning to `NC(=O)[C@H]1NC(=O)[C@H]1NC(=O)OCc1ccccc1`, the melting point lay within 248 to 249 °C.
Molecule `CC(C)n1cc(-c2nc(C(N)=O)c(N)nc2-c2ccccc2)ccc1=O` returned a melting point of 240 to 245 °C.
`CC(C)c1cccc(NC(=O)c2ccccc2[N+](=O)[O-])c1` displayed a melting point of 65.5 to 68.5 °C.
Then `CCc1c(C(=O)C(N)=O)c2c(OCC(=O)NOC(C)(C)C)cccc2n1Cc1ccccc1`, with 203 to 205 °C.
Then `Nc1nc2ccc(OC(F)(F)C(F)(F)F)cc2s1`, with 156 °C; and `CCCc1c(OCC(=N)OCC)ccc(C(C)=O)c1O`, with 50 to 52 °C.
In turn, `COc1ccc(-c2nc(-c3cccn3CC(=O)O)sc2-c2ccc(OC)cc2)cc1` gave a melting point of 198 to 200 °C.
`CCc1ccnc(C(=O)c2[nH]c3ccc(C(F)(F)F)cc3c2CC(=O)O)c1` had a melting point of 204 °C.
`COC(=O)COc1cccc(OCCC(c2ccccc2)(c2ccccc2)c2ccccc2)c1`: the melting point was 103 to 105 °C.
As for `Nc1nc(-c2ccc([N+](=O)[O-])cc2)c[nH]1`, the melting point lay in the range of 235 to 240 °C.
`CNc1nc(-c2cccc(NC(=S)c3ccc(C)cc3)c2)c2cc(OC)c(OC)cc2n1`: the melting point is 209 to 211 °C.
The molecule `O=C1Nc2cnc(Nc3ccc(N4CCOCC4)cc3)nc2S/C1=C/c1ccc([N+](=O)[O-])cc1` had a melting point of 302 to 304 °C.
`Nc1ccc(Sc2nnc3ccc(-c4ccc(F)cc4)cn23)cc1` yielded a melting point of 217 °C.
Then `CC(C)(CCn1ccnc1)NCC(O)c1ccc(OCc2ccccc2)c(NC(N)=O)c1` (stereo not drawn), with 142 to 143 °C; and `CC(C)c1sc2ncnc(N)c2c1-c1ccc([N+](=O)[O-])cc1`, with above 260 °C.
For the molecule `CC=C(C(=O)OC(c1ccccc1)c1ccccc1)N1C(=O)[C@@H]2N=C(Cc3ccccc3)O[C@@H]21`, the melting point fell in the range of 104 to 106 °C.
Then `CCOC(=O)c1ccc(N(NC(C)=O)C(=O)OC(C)(C)C)cc1`, with 105 to 108 °C; and `COc1ccc2c(c1)c(Cc1cc(=O)n(-c3cc(Cl)cc(Cl)c3)[nH]1)c(C)n2C(=O)c1ccc(Cl)cc1`, with 104 to 105 °C; and `Cn1c(=O)c([N+](=O)[O-])c(N2CCN(C(=O)c3cccs3)CC2)c2ccccc21`, with 105 °C.
Then `N#CC1=Cc2ccccc2C(N2CCN(N)CC2)c2ccccc21` (stereo not drawn), with 137 to 146 °C.
Under `CCCn1c(=O)c2c(ncn2CCCCC(C)=O)n(C)c1=O` stands 76 to 78 °C.
In the case of `Cc1cc(C=O)c(C)c(Br)c1C`, the melting point lay within 108 to 110 °C.
In turn, `C=CCCCCCCCCNC(=O)NOCc1ccccc1` registered a melting point of 53 to 55 °C.
`CC(C)(C)[Si](OCCOc1ccc(N)cn1)(c1ccccc1)c1ccccc1` displayed a melting point of 59 to 61 °C.
Then `COc1ccc(-c2cc(=Nc3c(C)cc(C)cc3C)n(C)c(N)n2)cc1OC`, with 192 to 195 °C.
As to `Nc1cccc2nccnc12`, the melting point was in the range of 87 to 90 °C.
`CCc1cccc(-c2cn(C)cc(-c3ccccc3)c2=O)c1`: the melting point fell in the range of 135 to 137 °C.
Turning to `Cc1c(O)ccc2c(=O)c(-c3ccc4c(c3)OCO4)coc12`, the melting point is 270 to 272 °C.
For the molecule `C#CCOc1ccc2ccc(=O)oc2c1`, the melting point was found to be 118 °C.
With `Cc1cc(C2=NNC(=O)Cc3cc4c(cc32)OCO4)ccc1[N+](=O)[O-]`, the melting point was in the range of 275 to 277 °C.
Turning to `O=Cc1c2ccccc2cc2ccc(Cl)cc12`, the melting point is 148 to 150 °C.
`CCN(Cc1ccc(Cl)nc1)C(=NC#N)NC` registered a melting point of 122 to 123 °C.
`CCC(C)(C)N=NC(C)(C#N)CCC(=O)O` (stereo not drawn) had a melting point of 60 to 62 °C.
`COc1cc(F)ccc1Oc1c(Cl)ncnc1NS(=O)(=O)c1ccc(C(C)(C)C)cc1` showed a melting point of 146 to 147 °C.
Under `CCOC(=O)Nc1cccc(-c2ccc3nnc(C)n3n2)c1` stands 232 to 235 °C.
`O=c1[nH]c2ccc(OCCCCN3CCC(c4cccc(Cl)c4Cl)CC3)cc2[nH]1` returned a melting point of 180 to 182 °C.
In the case of `CC=CC(C)=C1C(=O)OC(=O)C1c1cc(C)n(-c2ccccc2)c1C` (stereo not drawn), the melting point turned out to be 172 °C.
In turn, `Cc1ccc(-c2csc(/C=C/C(=O)Nc3ccc(CN(C)C4CCOCC4)cc3)c2)cc1` yielded a melting point of 188 to 190 °C.
In turn, `Nc1ncnc2c(C3OC(CO)C(O)C3O)[nH]nc12` (stereo not drawn) had a melting point of 141 to 142 °C.
As for `CNC(=O)Oc1ccc2c(c1)c1c(n2C)CC(CO)C1` (stereo not drawn), the melting point was 137 to 138 °C.
Under `O=C(Cc1ccc(O)cc1)Nc1c(-c2cc(Cl)ccc2O)c2cc(C(F)(F)F)ccc2[nH]c1=O` stands 218 to 221 °C.
The molecule `COCc1cccc(OCCc2cnc(S)[nH]c2=O)c1` had a melting point of 117 to 119 °C.
In turn, `NC(=S)NCCSCc1c[nH]cn1` displayed a melting point of 135 to 137 °C.
Under `O=c1ncc(Br)cn1CCO` stands 177 to 179 °C; under `Nc1ccccc1C(=O)OCCN1CCN(c2cccc(Cl)c2)CC1`, 76 °C; under `O=c1oc(-c2ccc(S(=O)(=O)c3ccccc3)cc2)cc(O)c1SCCc1ccccc1`, 194 to 195 °C.
`Clc1ccc(-n2c(Cn3ccnc3)nc3ccccc32)cc1` registered a melting point of 121 to 122 °C.
In turn, `CCCc1c(C(=O)C(C)C)c2ccc(C(=O)OC)cc2n1Cc1ccccc1[N+](=O)[O-]` came in with a melting point of 166 °C.
`CS(=O)(=O)ON1C(=O)CCC1=O` registered a melting point of 148 to 150 °C.
With `Cc1ccc(N2CCN(c3c(C)c(O)c4c(c3C)CC(C)(C)O4)CC2)cc1`, the melting point lay in the range of 185 to 189 °C.
Regarding `CC(=O)N1CC(CCN2CC=C(c3c[nH]c4cc(Cl)ccc34)CC2)c2cc(C)ccc21` (stereo not drawn), the melting point lay within 179 to 181 °C.
Regarding `Cc1c(F)c(N)cc([N+](=O)[O-])c1F`, the melting point lay within 106 to 107 °C.
The molecule `CN(C)C=NC(=O)c1nn(-c2ccccc2)c(=O)cc1Oc1ccccc1` returned a melting point of 175 to 176 °C.
The molecule `N#CN=C(Nc1ccc(C#N)cc1O)Nc1ccccc1Br` yielded a melting point of 175 to 176 °C.
Then `CCc1noc(-c2ccc(O)cc2)n1`, with 138 °C; and `Cc1cc(-c2ccc(-c3ccco3)cc2)n(-c2ccc(S(C)(=O)=O)cc2)c1`, with 193 to 194 °C; and `OCC1OC(n2c(NC3CC3)nc3cc(Cl)c(Cl)cc32)C(O)C1O` (stereo not drawn), with 184 to 186 °C.
Then `CCCN(c1nc(-c2ccc(Cl)cc2Cl)c(C)s1)C(c1ccccc1)C1CC1` (stereo not drawn), with 78 to 81 °C; and `O=C1C(=Cc2c[nH]c3ccccc23)N(Cc2ccccc2)C(=O)N1Cc1cc(C(F)(F)F)cc(C(F)(F)F)c1`, with 154 to 156 °C.
Molecule `CC(C)(C)c1nc2c(Cl)ccc(-n3c(=O)cc(C(F)(F)F)n(N)c3=O)c2o1` returned a melting point of 104 to 106 °C.
`CCOC(=O)C(=O)c1cn(CC)c2cc(-c3ccc(OC(F)(F)F)cc3)ccc12` yielded a melting point of 114 to 116 °C.
Consider `COC(=O)CCCc1cc2nc(Cl)ccc2n1S(=O)(=O)c1ccc(N(C)C)cc1`, for which the melting point is 188 °C.
The molecule `Cc1ccc2c(c1)C(=O)CC21CNC(=O)C1` (stereo not drawn) had a melting point of 162 to 164 °C.
Under `COc1ccc(-n2nc(NC(=O)N(C)C)cc2-c2ccc(OCCO)cc2)cc1` stands 167 to 168 °C.
With `CCSc1nc2ccc(N)cc2s1`, the melting point was 77 to 78 °C.
As for `CSCc1cc([N+](=O)[O-])ccc1N`, the melting point was in the range of 72 to 77 °C.
As to `Cc1cccc(S(=O)(=O)C2(CC#Cc3ccc(Cl)cc3)SC(=O)NC2=O)n1` (stereo not drawn), the melting point was in the range of 104 to 106 °C.
As to `O=C(CCC1CCN(Cc2cccc(F)c2)CC1)c1cc2c3c(c1)CCN3C(=O)CC2`, the melting point was 111 to 112 °C.
Under `Cc1nn(C)c(F)c1C(=O)Nc1cccc2c1CCC2(C)C` stands 138 °C.
Then `O=C1CCC(N2C(=O)c3cccc(CNC(=O)c4ccc(F)c(C(F)(F)F)c4)c3C2=O)C(=O)N1` (stereo not drawn), with 171 to 173 °C; and `O=c1c(Cl)c(OCc2ccc(Cl)cc2Cl)cnn1-c1ccc(Cl)cc1`, with 168 to 169 °C.
For `Nc1nnc2c3c(c(N4CCOCC4)nn12)CCCC3`, the melting point lay within 260 to 262 °C.
`COc1cc(C(C)C)ccc1C1(O)C(=O)c2ccc(N)c(N)c2C1=O` (stereo not drawn) registered a melting point of 272 to 274 °C.
Under `C=CC12CCc3cc(O)ccc3C1CCC1(C)C(=O)CCC12` (stereo not drawn) stands 239 to 242 °C.
For the molecule `COc1ccc(OCC(O)CNC(C)(C)C)c(-c2ccc(=S)[nH]n2)c1` (stereo not drawn), the melting point fell in the range of 188 to 190 °C.
The molecule `CC(=O)OCc1ccc(C=Cc2csc3ccccc23)s1` showed a melting point of 66 to 68 °C.
As to `CCn1cc(C(=O)O)c(=O)c2cc(Cl)c(N3CCOCC3)cc21`, the melting point came to 266 °C.
`CCOC(=O)CCc1cc2c(Nc3ccc4[nH]ccc4c3)c(C#N)cnc2s1` came in with a melting point of 202 °C.
Take `O=Cc1cccn1-c1ccccc1[N+](=O)[O-]`: the melting point is 119 to 122 °C.
Consider `CSc1ccc(-c2cc(Br)nn2-c2ccc(F)cc2)cc1`, for which the melting point lay in the range of 98 to 99 °C.
Then `O=C(NCCCC[C@H](Nc1nc2ccc(Cl)cc2cc1C(=O)O)C(=O)O)OCc1ccccc1`, with 152 to 154 °C.
Under `O=P(Oc1ccc(-c2ccccc2)cc1)(Oc1ccc(-c2ccccc2)cc1)Oc1ccc(-c2ccccc2)cc1` stands 137 °C.
